Reference: patent publication US7442541B2, “β-glucan-containing fat and oil composition and novel microorganism capable of producing β-glucan” (Adeka Corporation, priority 2002, dated 2008)

Tests used:
[1] = test system: ADK-34; assay: Cycloheximide resistance test; type: cell-based, Aureobasidium pullulans; conditions: strain ADK-34, YM agar, 26° C., 10 days
Experimental: (§1) The strains obtained by the screening in Test Examples 1 and 2 and IFO-4466, IFO-6353, and IFO-7757 purchased from Institute for Fermentation, Osaka, i.e., were tested for cycloheximide resistance as follows. Each strain was grown on YM agar medium (Difco) at 26° C. for 5 days. YM agar media (Difco) containing 5, 10, 20, 40, and 80 μg/ml of cycloheximide were prepared. The grown strain was inoculated into each of the cycloheximide-containing media using a sterile toothpick and incubated at 26° C. for 10 days. The plates were examined for colonies. The diameters of the colonies, if formed, were measured.

[2] = test system: ADK-77; assay: Cycloheximide resistance test; type: cell-based, Aureobasidium pullulans; conditions: strain ADK-77, YM agar, 26° C., 10 days
Experimental: as §1

[3] = test system: ADK-71; assay: Cycloheximide resistance test; type: cell-based, Aureobasidium pullulans; conditions: strain ADK-71, YM agar, 26° C., 10 days
Experimental: as §1

[4] = test system: ADK-24; assay: Cycloheximide resistance test; type: cell-based; conditions: strain ADK-24, YM agar, 26° C., 10 days
Experimental: as §1

[5] = test system: ADK-1; assay: Cycloheximide resistance test; type: cell-based; conditions: strain ADK-1, YM agar, 26° C., 10 days
Experimental: as §1

[6] = test system: ADK-42; assay: Cycloheximide resistance test; type: cell-based; conditions: strain ADK-42, YM agar, 26° C., 10 days
Experimental: as §1

[7] = test system: ADK-5; assay: Cycloheximide resistance test; type: cell-based; conditions: strain ADK-5, YM agar, 26° C., 10 days
Experimental: as §1

[8] = test system: ADK-17; assay: Cycloheximide resistance test; type: cell-based; conditions: strain ADK-17, YM agar, 26° C., 10 days
Experimental: as §1

[9] = test system: ADK-4; assay: Cycloheximide resistance test; type: cell-based; conditions: strain ADK-4, YM agar, 26° C., 10 days
Experimental: as §1

[10] = test system: ADK-31; assay: Cycloheximide resistance test; type: cell-based; conditions: strain ADK-31, YM agar, 26° C., 10 days
Experimental: as §1

[11] = test system: ADK-27; assay: Cycloheximide resistance test; type: cell-based; conditions: strain ADK-27, YM agar, 26° C., 10 days
Experimental: as §1

[12] = test system: ADK-20; assay: Cycloheximide resistance test; type: cell-based; conditions: strain ADK-20, YM agar, 26° C., 10 days
Experimental: as §1

[13] = test system: ADK-8; assay: Cycloheximide resistance test; type: cell-based; conditions: strain ADK-8, YM agar, 26° C., 10 days
Experimental: as §1

[14] = test system: ADK-6; assay: Cycloheximide resistance test; type: cell-based; conditions: strain ADK-6, YM agar, 26° C., 10 days
Experimental: as §1

[15] = test system: ADK-28; assay: Cycloheximide resistance test; type: cell-based; conditions: strain ADK-28, YM agar, 26° C., 10 days
Experimental: as §1

[16] = test system: ADK-10; assay: Cycloheximide resistance test; type: cell-based; conditions: strain ADK-10, YM agar, 26° C., 10 days
Experimental: as §1

[17] = test system: IFO-4466, IFO-6353, and IFO-7757; assay: Growth of reference strains on solid medium containing cycloheximide; type: cell-based, Aureobasidium pullulans; conditions: solid medium (agar plate), 26° C., 10 days
Experimental: This is the case that the formation of a colony of 0.1 mm or greater, preferably 0.3 mm or greater, still preferably 0.5 mm or greater in diameter as a result of fungous proliferation is observed on a solid medium having the cycloheximide concentration that IFO strains is not allowed to grow after a strain is inoculated on the solid medium (agar plate) containing cycloheximide and cultured at 26° C. for 10 days. Usually, these IFO strains are not allowed to grow on a solid medium containing cycloheximide at concentrations of 20 μg/ml or higher.

C[C@@H]1C[C@@H]([C@H](O)CC2CC(=O)NC(=O)C2)C(=O)[C@@H](C)C1 [Cycloheximide, cycloheximide]
6.3 mm: Colony diameter ([7]; cycloheximide 5 μg/ml) | Colony diameter ([10]; cycloheximide 5 μg/ml)
0.5 mm: Colony diameter ([1]; cycloheximide 80 μg/ml)
≥ 20 µg/mL: cycloheximide concentration at which IFO strains are not allowed to grow [17]
0.8 mm: Colony diameter ([2]; cycloheximide 20 μg/ml)
1.1 mm: Colony diameter ([13]; cycloheximide 10 μg/ml)
7.1 mm: Colony diameter ([14]; cycloheximide 5 μg/ml) | Colony diameter ([15]; cycloheximide 5 μg/ml)
1.8 mm: Colony diameter ([3]; cycloheximide 20 μg/ml)
9.5 mm: Colony diameter ([2]; cycloheximide 5 μg/ml)
2.5 mm: Colony diameter ([4]; cycloheximide 10 μg/ml)
0 mm: Colony diameter ([2]; cycloheximide 40 μg/ml) | Colony diameter ([2]; cycloheximide 80 μg/ml) | Colony diameter ([3]; cycloheximide 80 μg/ml) | Colony diameter ([4]; cycloheximide 20 μg/ml) | Colony diameter ([4]; cycloheximide 40 μg/ml) | Colony diameter ([4]; cycloheximide 80 μg/ml) | Colony diameter ([5]; cycloheximide 5 μg/ml) | Colony diameter ([5]; cycloheximide 10 μg/ml) | Colony diameter ([5]; cycloheximide 20 μg/ml) | Colony diameter ([5]; cycloheximide 40 μg/ml) | Colony diameter ([5]; cycloheximide 80 μg/ml) | Colony diameter ([6]; cycloheximide 10 μg/ml) | Colony diameter ([6]; cycloheximide 20 μg/ml) | Colony diameter ([6]; cycloheximide 40 μg/ml) | Colony diameter ([6]; cycloheximide 80 μg/ml) | Colony diameter ([7]; cycloheximide 10 μg/ml) | Colony diameter ([7]; cycloheximide 20 μg/ml) | Colony diameter ([7]; cycloheximide 40 μg/ml) | Colony diameter ([7]; cycloheximide 80 μg/ml) | Colony diameter ([8]; cycloheximide 10 μg/ml) | Colony diameter ([8]; cycloheximide 20 μg/ml) | Colony diameter ([8]; cycloheximide 40 μg/ml) | Colony diameter ([8]; cycloheximide 80 μg/ml) | Colony diameter ([9]; cycloheximide 10 μg/ml) | Colony diameter ([9]; cycloheximide 20 μg/ml) | Colony diameter ([9]; cycloheximide 40 μg/ml) | Colony diameter ([9]; cycloheximide 80 μg/ml) | Colony diameter ([10]; cycloheximide 20 μg/ml) | Colony diameter ([10]; cycloheximide 40 μg/ml) | Colony diameter ([10]; cycloheximide 80 μg/ml) | Colony diameter ([11]; cycloheximide 10 μg/ml) | Colony diameter ([11]; cycloheximide 20 μg/ml) | Colony diameter ([11]; cycloheximide 40 μg/ml) | Colony diameter ([11]; cycloheximide 80 μg/ml) | Colony diameter ([12]; cycloheximide 10 μg/ml) | Colony diameter ([12]; cycloheximide 20 μg/ml) | Colony diameter ([12]; cycloheximide 40 μg/ml) | Colony diameter ([12]; cycloheximide 80 μg/ml) | Colony diameter ([13]; cycloheximide 20 μg/ml) | Colony diameter ([13]; cycloheximide 40 μg/ml) | Colony diameter ([13]; cycloheximide 80 μg/ml) | Colony diameter ([14]; cycloheximide 10 μg/ml) | Colony diameter ([14]; cycloheximide 20 μg/ml) | Colony diameter ([14]; cycloheximide 40 μg/ml) | Colony diameter ([14]; cycloheximide 80 μg/ml) | Colony diameter ([15]; cycloheximide 10 μg/ml) | Colony diameter ([15]; cycloheximide 20 μg/ml) | Colony diameter ([15]; cycloheximide 40 μg/ml) | Colony diameter ([15]; cycloheximide 80 μg/ml) | Colony diameter ([16]; cycloheximide 10 μg/ml) | Colony diameter ([16]; cycloheximide 20 μg/ml) | Colony diameter ([16]; cycloheximide 40 μg/ml) | Colony diameter ([16]; cycloheximide 80 μg/ml)
1.2 mm: Colony diameter ([3]; cycloheximide 40 μg/ml)
13.6 mm: Colony diameter ([1]; cycloheximide 5 μg/ml)
6.2 mm: Colony diameter ([12]; cycloheximide 5 μg/ml)
9.1 mm: Colony diameter ([4]; cycloheximide 5 μg/ml)
3.7 mm: Colony diameter ([1]; cycloheximide 40 μg/ml)
5.1 mm: Colony diameter ([1]; cycloheximide 20 μg/ml)
10.3 mm: Colony diameter ([11]; cycloheximide 5 μg/ml)
1.7 mm: Colony diameter ([10]; cycloheximide 10 μg/ml)
7.6 mm: Colony diameter ([3]; cycloheximide 5 μg/ml)
6.7 mm: Colony diameter ([1]; cycloheximide 10 μg/ml) | Colony diameter ([8]; cycloheximide 5 μg/ml)
2.4 mm: Colony diameter ([6]; cycloheximide 5 μg/ml)
8.5 mm: Colony diameter ([9]; cycloheximide 5 μg/ml) | Colony diameter ([16]; cycloheximide 5 μg/ml)
4.1 mm: Colony diameter ([2]; cycloheximide 10 μg/ml) | Colony diameter ([3]; cycloheximide 10 μg/ml)
7.7 mm: Colony diameter ([13]; cycloheximide 5 μg/ml)
